Experimental findings from publication PMC5127042, “A polysaccharide utilization locus from Flavobacterium johnsoniae enables conversion of recalcitrant chitin” (Biotechnology for Biofuels, 2016) are described below.

One test concerns the target T1, CusDII (Flavobacterium johnsoniae, UniProt A5FB55).
T1 construct: gene Fjoh_4561; residues 26-505 (crystal construct 35-505), signal peptide removed, N-terminal His tag removed with TEV, E. coli Rosetta(DE3) pLysS
T1 sequence (A5FB55 26-505): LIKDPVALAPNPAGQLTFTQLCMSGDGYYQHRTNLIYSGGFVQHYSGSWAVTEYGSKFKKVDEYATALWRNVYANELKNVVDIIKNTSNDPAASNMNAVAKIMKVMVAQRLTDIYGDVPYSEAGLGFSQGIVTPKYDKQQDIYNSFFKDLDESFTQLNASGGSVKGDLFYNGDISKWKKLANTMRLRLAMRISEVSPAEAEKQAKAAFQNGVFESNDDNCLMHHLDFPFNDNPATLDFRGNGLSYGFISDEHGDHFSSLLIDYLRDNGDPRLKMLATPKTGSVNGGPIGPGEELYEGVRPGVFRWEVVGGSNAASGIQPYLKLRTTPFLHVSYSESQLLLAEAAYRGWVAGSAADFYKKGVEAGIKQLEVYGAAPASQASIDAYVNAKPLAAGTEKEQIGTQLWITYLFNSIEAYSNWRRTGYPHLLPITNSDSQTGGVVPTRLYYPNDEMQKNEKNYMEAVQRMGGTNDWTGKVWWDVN
Nature of the test: isothermal titration calorimetry. It counts as binding. To be noted: 20 mM HEPES, 100 mM NaCl, pH 7.0, 25 °C; independent site model. The source says: isothermal titration calorimetry on CusDII
In general terms: In ITC the heat of successive injections is recorded.

A further test deals with T2, CusDI (Flavobacterium johnsoniae, UniProt A5FB66).
T2 construct: gene Fjoh_4558; residues 33-526, signal peptide removed, N-terminal His tag removed with TEV, E. coli Rosetta(DE3) pLysS
T2 sequence (A5FB66 33-526): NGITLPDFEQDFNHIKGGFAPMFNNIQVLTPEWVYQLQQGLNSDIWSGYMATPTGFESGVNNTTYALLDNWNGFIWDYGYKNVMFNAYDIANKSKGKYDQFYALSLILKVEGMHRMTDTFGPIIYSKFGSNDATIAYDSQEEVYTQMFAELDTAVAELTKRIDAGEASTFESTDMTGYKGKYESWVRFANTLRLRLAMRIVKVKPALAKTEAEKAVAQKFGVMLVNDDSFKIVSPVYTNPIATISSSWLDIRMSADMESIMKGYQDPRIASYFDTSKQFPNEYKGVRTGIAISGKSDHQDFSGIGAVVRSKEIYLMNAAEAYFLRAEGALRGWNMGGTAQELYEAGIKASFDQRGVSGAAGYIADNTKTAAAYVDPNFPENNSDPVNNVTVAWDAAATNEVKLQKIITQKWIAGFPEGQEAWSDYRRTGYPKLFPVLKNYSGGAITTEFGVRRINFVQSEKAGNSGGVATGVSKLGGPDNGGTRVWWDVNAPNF
Nature of the test: isothermal titration calorimetry. As to conditions: 20 mM HEPES, 100 mM NaCl, pH 7.0, 25 °C, one-site model. It counts as binding. From the text:
isothermal titration calorimetry on CusDI

What is called Kd is the free concentration of one partner at which half of the binding sites on the other are occupied at equilibrium, for simple one-to-one binding. For `CC(=O)N[C@H]1[C@H](O[C@H]2[C@H](O)[C@@H](NC(C)=O)[C@H](O[C@H]3[C@H](O)[C@@H](NC(C)=O)C(O)O[C@@H]3CO)O[C@@H]2CO)O[C@H](CO)[C@@H](O[C@@H]2O[C@H](CO)[C@@H](O[C@@H]3O[C@H](CO)[C@@H](O)[C@H](O)[C@H]3NC(C)=O)[C@H](O)[C@H]2NC(C)=O)[C@@H]1O` (some centres unmarked) [Chitopentaose], the Kd at CusDII was determined as 236 ± 8 µM; on CusDI, 12.8 ± 0.21 µM. Take `CC(=O)N[C@H]1[C@H](O[C@H]2[C@H](O)[C@@H](NC(C)=O)C(O)O[C@@H]2CO)O[C@H](CO)[C@@H](O)[C@@H]1O` (some centres unmarked) [Chitobiose]: binding at CusDI was put at a Kd of 25.6 ± 2.3 µM. Consider `CC(=O)N[C@H]1[C@H](O[C@H]2[C@H](O)[C@@H](NC(C)=O)[C@H](O[C@H]3[C@H](O)[C@@H](NC(C)=O)C(O)O[C@@H]3CO)O[C@@H]2CO)O[C@H](CO)[C@@H](O[C@@H]2O[C@H](CO)[C@@H](O[C@@H]3O[C@H](CO)[C@@H](O[C@@H]4O[C@H](CO)[C@@H](O)[C@H](O)[C@H]4NC(C)=O)[C@H](O)[C@H]3NC(C)=O)[C@H](O)[C@H]2NC(C)=O)[C@@H]1O` (some centres unmarked) [Chitohexaose], for which the Kd on CusDII is 41.2 ± 1 µM; at CusDI it was 16.1 ± 0.42 µM. At CusDI, `CC(=O)N[C@H]1[C@H](O[C@H]2[C@H](O)[C@@H](NC(C)=O)C(O)O[C@@H]2CO)O[C@H](CO)[C@@H](O[C@@H]2O[C@H](CO)[C@@H](O)[C@H](O)[C@H]2NC(C)=O)[C@@H]1O` (some centres unmarked) [Chitotriose] came in with a Kd of 8.51 ± 0.51 µM. `CC(=O)N[C@H]1[C@H](O[C@H]2[C@H](O)[C@@H](NC(C)=O)C(O)O[C@@H]2CO)O[C@H](CO)[C@@H](O[C@@H]2O[C@H](CO)[C@@H](O[C@@H]3O[C@H](CO)[C@@H](O)[C@H](O)[C@H]3NC(C)=O)[C@H](O)[C@H]2NC(C)=O)[C@@H]1O` (some centres unmarked) [Chitotetraose] gave an equilibrium dissociation constant (Kd) on CusDI (single titration) of 38.3 ± 4.3 µM. With `CC(=O)N[C@H]1C(O)O[C@H](CO)[C@@H](O)[C@@H]1O` (some centres unmarked) [GlcNAc], the Kd on CusDI (n constrained to 1) was determined as 1470 ± 210 µM.
